The results in this text go back to US20210038589A1, “USES, COMPOSITIONS AND METHODS” (priority 2018, published 2021).

The subject of test [1] is gamma oscillations in mouse hippocampal slices. Description: Prevention of Aβ-induced degradation of kainate-induced gamma oscillations in hippocampal slices (interface chamber). The test is classed as cell-based. Particulars: 50 nM Aβ in last 15 min, 100 nM KA. How it is done: Previously we have characterized the effects of acute Aβ on the hippocampal circuitry of WT mice. […] During the last 15 min 50 nM Aβ was added to the incubation solution. […] Control experiments were also performed by incubating slice just with ACSF for 1 h (with Aβ present for the last 15 min) or incubating just with ACSF for 1 h. […] Pmzd 10 μM: 9.95±1.82×10^-9V^2, n=10, p<0.0001 vs Aβ, FIGS. 4A,B,C,F, light and dark green, respectively). […] Horizontal sections (350 μm thick) of the ventral hippocampi of both hemispheres were prepared with a Leica VT1200S vibratome (Leica Microsystems). Immediately after cutting, slices were transferred into a humidified interface holding chamber containing standard ACSF (in mM): 124 NaCl, 30 NaHCO3, 10 glucose, 1.25 NaH2PO4, 3.5 KCl, 1.5 MgCl2, 1.5 CaCl2, continuously supplied with humidified carbogen. The chamber was held at 34° C. during slicing and subsequently allowed to cool down to room temperature ( 22° C.) for a minimum of 1 hour. Recordings were carried out in hippocampal area CA3 with borosilicate glass microelectrodes, pulled to a resistance of 3-7 MΩ. Local field potential (LFP) were recorded using microelectrodes filled with ACSF placed in CA3 stratum pyramidale. LFP oscillations were elicited by applying kainic acid (100 nM) to the extracellular bath, Interface chamber LFP recordings were performed with a 4-channel […] amplifier (University of Cologne, Germany). Submerged chamber LFP recordings and patch-clamp recordings were performed using a Multiclamp 700B (Molecular Devices, CA, USA). In order to maintain stable LFP oscillations all recordings were performed at 34° C. with a perfusion rate of 3-5 ml per minute of aerated ACSF containing 100 nM Kainate. The oscillations were allowed to stabilize for at least 20 minutes before any recordings were performed. Power spectra density plots (from 60 s long LFP recordings) were calculated in averaged Fourier-segments of 8192 points using Axograph X (Kagi, Berkeley, Calif., USA). […] Coefficient of rhythmicity (Cr) was calculated in order to assess the rhythmicity of gamma oscillations (26, 27) and was defined as Cr=(α-β)/(α+β) were α corresponds to the value of the height of the second peak and β to the first valley in the normalized autocorrelogram. […] Only recordings having Cr≥0.01 were considered rhythmic.

For test [2] the test system is unchanged. Briefly: Rescue of gamma oscillations previously degraded by Aβ in hippocampal slices (submerged chamber). The format is cell-based. To be noted: Aβ still present.
Procedure: Hippocampal slices were placed in a submerged recording chamber where gamma oscillations were induced by bath perfusion of 100 nM KA and allowed to stabilize for 20-30 min. Continuous recordings of LFP gamma oscillations were performed in 4 different conditions (FIG. 5). All groups were initially activated with Kainate. In a control group of slices oscillations were recorded for 40 min after stabilization without any other compound addition (control, n=5, grey). All other groups were perfused with 1 μM Aβ after stabilization of the oscillations for a minimum of 20 min. For these experiments the concentration of Aβ applied was increased to 1 μM in order to overcome the method-dependent lower signal amplitude due to the submerged recording conditions (8).
Hippocampal slices were placed on a submerged recording chamber where gamma oscillations were induced by bath perfusion of 100 nM Kainate and allowed to stabilize for 20-30 minutes. Continuous recordings of LFP gamma oscillations were performed in 3 different conditions. All groups were initially activated with kainate. In a control group of slices oscillations were recorded for 40 minutes after their stabilization without any other compound addiction (control, n=5; see FIG. 5). All the other groups were perfused with Aβ 1 μM after the stabilization of the oscillations for a minimum of 20 minutes.

The structures appear in SMILES notation.

Regarding `Clc1ccc(N2CCN(Cc3c[nH]c4ncccc34)CC2)cc1` [L745,870], in test [1] (1 h incubation with 500 nM compound), the gamma oscillation power is given as 1.61±0.52 ×10^−9V^2.

In the case of `CC(C)(C)CCN1C[C@@H]2[C@@H](CNC(=O)c3cc(Cl)cc(Cl)c3)[C@@H]2C1` [ML-218], in test [2] (5 μM compound applied after 20 min of 1 μM Aβ), the “gamma power after treatment application, relative to Aβ” value is given as 2.16±0.53 of Aβ. As to `CC(C)[C@H]1c2ccc(F)cc2CC[C@@]1(CCN(C)CCCc1nc2ccccc2[nH]1)OC(=O)C1CC1` [NNC55-0396], in test [2] (10 μM compound applied after 20 min of 1 μM Aβ), the “gamma power after treatment application, relative to Aβ” value is given as 1.85±0.15 of Aβ.

On to `CC1CCN(CC[C@H]2CCCN2S(=O)(=O)c2cccc(O)c2)CC1` [SB-269970, ®-3-(2-(2-(4-methylpiperidin-1-yl)ethil)pyrrolidine-1-sulfonyl) phenol], for which the gamma oscillation power in test [1] (1 h incubation with 1 μM compound) is reported as 1.47±0.24 ×10^−9V^2. Regarding `CCN1CCCC1CNC(=O)c1cc(S(N)(=O)=O)ccc1OC` (centres unmarked) [Sulpiride], the gamma oscillation power in test [1] (1 h incubation with 5 μM compound) is 2.23±0.52 ×10^−9V^2.
